Data taken from patent US12503436B2, “Compounds and compositions for treating conditions associated with STING activity” (NOVARTIS PHARMA AG, priority 2021, dated 2025).

target: STING (Homo sapiens, UniProt Q86WV6, G230A/H232R/R293Q/R71H); assay: STING reporter assay in THP1-Dual KO-IFNAR2 cells (2′3′cGAMP stimulation, luciferase reporter); format: cell-based; conditions: 15 μM 2′3′cGAMP stimulation, 24 h, read-out: Pharmaron, THP1_IFNAR2 STING 24 h Luci Normalized: GeoMean EC50
Outline: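 THP1-Dual KO-IFNAR2 cells (2×10E6 cells/mL) with compounds at 0.0017-100 μM final, stimulated with 15 μM final 2′3′cGAMP delivered by Lipofectamine 2000; 24 h at 37 °C. Luciferase in supernatant read with QUANTI-Luc Plus; EC50 derived from luminescence.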

Chain of STING (Q86WV6 whole entry R71H/G230A/H232R/R293Q): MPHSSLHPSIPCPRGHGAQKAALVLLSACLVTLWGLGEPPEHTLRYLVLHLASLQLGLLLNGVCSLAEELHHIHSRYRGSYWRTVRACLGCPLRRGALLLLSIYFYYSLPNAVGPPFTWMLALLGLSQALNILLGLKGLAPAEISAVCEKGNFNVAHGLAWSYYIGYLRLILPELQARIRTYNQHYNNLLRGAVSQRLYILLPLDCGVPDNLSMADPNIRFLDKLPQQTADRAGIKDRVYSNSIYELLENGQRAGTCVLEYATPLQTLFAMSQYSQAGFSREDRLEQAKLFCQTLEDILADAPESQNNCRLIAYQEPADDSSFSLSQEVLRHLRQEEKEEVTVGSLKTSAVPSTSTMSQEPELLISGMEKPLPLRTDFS

Molecule	EC50 [nM]
N#C[C@H]1C[C@@H]1C(=O)Nc1c[nH]c2ccc(O[C@H]3C[C@H](c4ccc(C(F)(F)F)cc4)C3)cc12 [Compound 562, (1s,2s)-2-cyano-N-(5-((trans)-3-(4-(trifluoromethyl)phenyl)cyclobutoxy)-1H-indol-3-yl)cyclopropane-1-carboxamide]	200 to 1000
CC(=O)Nc1c[nH]c2ccc(OC3Cc4ccc(C(F)(F)F)cc4C3)cc12 (stereo not drawn) [Compound 473, N-(5-((5-(trifluoromethyl)-2,3-dihydro-1H-inden-2-yl)oxy)-1H-indol-3-yl)acetamide]	1000 to 5000
CC(=O)Nc1c[nH]c2ccc(CCOc3cncc(C(F)(F)F)c3)cc12 [Compound 481, N-[5-(2-{[5-(trifluoromethyl)pyridin-3-yl]oxy}ethyl)-1H-indol-3-yl]acetamide]	1000 to 5000
CC1(C(=O)Nc2c[nH]c3ccc(O[C@H]4C[C@@H](c5ccc(C(F)(F)F)cc5)C4)cc23)CCC1 [Compound 360, 1-methyl-N-(5-(cis-3-(4-(trifluoromethyl)phenyl)cyclobutoxy)-1H-indol-3-yl)cyclobutane-1-carboxamide]	200 to 1000
O=C(Nc1c[nH]c2ccc(OCCc3ccc(C(F)(F)F)cc3)cc12)C1CC1 [Compound 252, N-(5-(4-(trifluoromethyl)phenethoxy)-1H-indol-3-yl)cyclopropanecarboxamide]	40 to 200
O=C(Nc1c[nH]c2ccc(C(O)CCc3ccc(C(F)(F)F)cc3)cc12)C1CC1 (stereo not drawn) [Compound 209, N-(5-(1-hydroxy-3-(4-(trifluoromethyl)phenyl)propyl)-1H-indol-3-yl)cyclopropanecarboxamide]	200 to 1000
CC[C@H](O)C(=O)Nc1c[nH]c2ccc(OCCc3ccc(C(F)(F)F)cc3)cc12 [Compound 430, (S)-2-hydroxy-N-(5-(4-(trifluoromethyl)phenethoxy)-1H-indol-3-yl)butanamide]	40 to 200
CC(=O)Nc1c[nH]c2ccc(OCCc3ccc(S(F)(F)(F)(F)F)cc3)cc12 [Compound 169, N-(5-(4-(pentafluoro-16-sulfaneyl)phenethoxy)-1H-indol-3-yl)acetamide]	40 to 200
CC(=O)Nc1c[nH]c2ccc(OCCc3cnn4c3CCCC4)cc12 [Compound 349, N-(5-(2-(4,5,6,7-tetrahydropyrazolo[1,5-a]pyridin-3-yl)ethoxy)-1H-indol-3-yl)acetamide]	5000 to 100000
3-hydroxy-N-(5-(2-((3aR,5r,6aS)-2-(2,2,2-trifluoroethyl)octahydrocyclopenta[c]pyrrol-5-yl)ethoxy)-1H-indol-3-yl)cyclobutane-1-carboxamide [Compound 347]	200 to 1000
CCC(=O)Nc1c[nH]c2ccc(OCc3ccc(C(F)(F)F)cc3)cc12 [Compound 138, N-(5-((4-(trifluoromethyl)benzyl)oxy)-1H-indol-3-yl)propionamide]	200 to 1000
C[C@H]1C[C@@H]1C(=O)Nc1c[nH]c2ccc(CCOc3ccc(C(F)(F)F)cc3)cc12 [Compound 394, (1S,2S)-2-methyl-N-(5-(2-(4-(trifluoromethyl)phenoxy)ethyl)-1H-indol-3-yl)cyclopropane-1-carboxamide]	40 to 200
CC(=O)Nc1c[nH]c2ccc(O[C@@H]3C[C@@H](c4ccc(C(F)(F)F)cc4)[C@H]3C)cc12 [Compound 443, N-(5-((1R,2R,3R)-2-methyl-3-(4-(trifluoromethyl)phenyl)cyclobutoxy)-1H-indol-3-yl)acetamide]	200 to 1000
CC(C)(C)CC(=O)Nc1c[nH]c2ccc(OCCc3ccc(C(F)(F)F)cc3)cc12 [Compound 202, 3,3-dimethyl-N-(5-(4-(trifluoromethyl)phenethoxy)-1H-indol-3-yl)butanamide]	40 to 200
CC1(C(=O)Nc2c[nH]c3ccc(OCC[C@@H]4C[C@@H]5CN(CC(F)(F)F)C[C@@H]5C4)cc23)CCOCC1 [Compound 161, 4-methyl-N-(5-(2-((3aR,5r,6aS)-2-(2,2,2-trifluoroethyl)octahydrocyclopenta[c]pyrrol-5-yl)ethoxy)-1H-indol-3-yl)tetrahydro-2H-pyran-4-carboxamide]	40 to 200
O=C(Nc1c[nH]c2ccc(OCCc3ccc(C(F)(F)F)cc3)cc12)C1CN(CC(F)(F)F)C1 [Compound 210, 1-(2,2,2-trifluoroethyl)-N-(5-(4-(trifluoromethyl)phenethoxy)-1H-indol-3-yl)azetidine-3-carboxamide]	40 to 200
CCC(=O)Nc1c[nH]c2ccc(COc3ccc(C)cc3)cc12 [Compound 291, N-(5-((p-tolyloxy)methyl)-1H-indol-3-yl)propionamide]	200 to 1000
CC(=O)Nc1c[nH]c2ccc(CCOc3ccc(C(F)(F)F)cc3)c(Br)c12 [Compound 546, N-(4-bromo-5-(2-(4-(trifluoromethyl)phenoxy)ethyl)-1H-indol-3-yl)acetamide]	1000 to 5000

Molecule	EC50 [nM]
CC1(C(=O)Nc2c[nH]c3ccc(O[C@H]4C[C@@H](c5ccc(C(F)(F)F)cc5)C4)cc23)CCCO1 (stereo partly drawn) [Compound 358, 2-methyl-N-(5-(cis-3-(4-(trifluoromethyl)phenyl)cyclobutoxy)-1H-indol-3-yl)tetrahydrofuran-2-carboxamide]	1000 to 5000
C[C@]1(C(=O)Nc2c[nH]c3ccc(OCC[C@@H]4C[C@@H]5CN(CC(F)(F)F)C[C@@H]5C4)cc23)CC[C@H](O)CC1 [Compound 504, (1r,4R)-4-hydroxy-1-methyl-N-(5-(2-((3aR,5r,6aS)-2-(2,2,2-trifluoroethyl)octahydrocyclopenta[c]pyrrol-5-yl)ethoxy)-1H-indol-3-yl)cyclohexane-1-carboxamide]	200 to 1000
CC(=O)Nc1c[nH]c2ccc(OCCc3sc(C(F)(F)F)nc3C)cc12 [Compound 484, N-(5-(2-(4-methyl-2-(trifluoromethyl)thiazol-5-yl)ethoxy)-1H-indol-3-yl)acetamide]	1000 to 5000
CC(=O)Nc1c[nH]c2ccc(CCOc3cnc4cccc(Cl)c4c3)cc12 [Compound 560, N-(5-(2-((5-chloroquinolin-3-yl)oxy)ethyl)-1H-indol-3-yl)acetamide]	1000 to 5000
C[C@]1(C(=O)Nc2c[nH]c3ccc(OCc4ccc(C(F)(F)F)cc4)cc23)CC[C@@H](O)CC1 [Compound 419, trans-4-hydroxy-1-methyl-N-(5-((4-(trifluoromethyl)benzyl)oxy)-1H-indol-3-yl)cyclohexane-1-carboxamide]	200 to 1000
CC(=O)Nc1c[nH]c2ccc(C#Cc3ccc(C(F)(F)F)cc3)cc12 [Compound 495, N-(5-((4-(trifluoromethyl)phenyl)ethynyl)-1H-indol-3-yl)acetamide]	1000 to 5000
O=C(Nc1c[nH]c2ccc(O[C@H]3C[C@@H](c4ccc(C(F)(F)F)cc4)C3)cc12)C1CC(Cl)C1 (stereo partly drawn) [Compound 336, 3-chloro-N-(5-(cis-3-(4-(trifluoromethyl)phenyl)cyclobutoxy)-1H-indol-3-yl)cyclobutane-1-carboxamide]	200 to 1000
CN1CC(C(=O)Nc2c[nH]c3ccc(OCC[C@@H]4C[C@@H]5CN(CC(F)(F)F)C[C@@H]5C4)cc23)C1 [Compound 303, 1-methyl-N-(5-(2-((3aR,5r,6aS)-2-(2,2,2-trifluoroethyl)octahydrocyclopenta[c]pyrrol-5-yl)ethoxy)-1H-indol-3-yl)azetidine-3-carboxamide]	5000 to 100000
CO[C@H]1C[C@H](C(=O)Nc2c[nH]c3ccc(OCCc4ccc(C(F)(F)F)nc4)cc23)C1 [Compound 194, trans-3-methoxy-N-(5-(2-(6-(trifluoromethyl)pyridin-3-yl)ethoxy)-1H-indol-3-yl)cyclobutane-1-carboxamide]	200 to 1000
C[C@H]1C[C@H](C(=O)Nc2c[nH]c3ccc(O[C@H]4C[C@@H](c5ccc(C(F)(F)F)cc5)C4)cc23)C1 [Compound 334, trans-3-methyl-N-(5-(cis-3-(4-(trifluoromethyl)phenyl)cyclobutoxy)-1H-indol-3-yl)cyclobutane-1-carboxamide]	40 to 200
COCC(=O)Nc1c[nH]c2ccc(OCCc3ccc(C(F)(F)F)cc3)cc12 [Compound 107, 2-methoxy-N-(5-(4-(trifluoromethyl)phenethoxy)-1H-indol-3-yl)acetamide]	40 to 200
C[C@]1(C(=O)Nc2c[nH]c3ccc(OCCc4ccc(C(F)(F)F)cc4)cc23)C[C@H](O)C1 [Compound 446, trans-3-hydroxy-1-methyl-N-(5-(4-(trifluoromethyl)phenethoxy)-1H-indol-3-yl)cyclobutane-1-carboxamide]	40 to 200
CC(=O)CCc1ccc(OCCc2ccc3[nH]cc(NC(C)=O)c3c2)cc1 [Compound 549, N-(5-(2-(4-(3-oxobutyl)phenoxy)ethyl)-1H-indol-3-yl)acetamide]	1000 to 5000
N#CC1(C(=O)Nc2c[nH]c3ccc(OCCc4ccc(C(F)(F)F)cc4)cc23)CC1 [Compound 193, 1-cyano-N-(5-(4-(trifluoromethyl)phenethoxy)-1H-indol-3-yl)cyclopropane-1-carboxamide]	200 to 1000
1-fluoro-N-(5-(2-((3aR,5r,6aS)-2-(2,2,2-trifluoroethyl)octahydrocyclopenta[c]pyrrol-5-yl)ethoxy)-1H-indol-3-yl)cyclopropane-1-carboxamide [Compound 371]	200 to 1000
CC(=O)N[C@H]1C[C@](C)(C(=O)Nc2c[nH]c3ccc(O[C@H]4C[C@@H](c5ccc(C(F)(F)F)cc5)C4)cc23)C1 [Compound 413, trans-3-acetamido-1-methyl-N-(5-(cis-3-(4-(trifluoromethyl)phenyl)cyclobutoxy)-1H-indol-3-yl)cyclobutane-1-carboxamide]	1000 to 5000
CC1(C)OC(C)(C)C1C(=O)Nc1c[nH]c2ccc(OCc3ccc(C(F)(F)F)cc3)cc12 [Compound 496, 2,2,4,4-tetramethyl-N-(5-((4-(trifluoromethyl)benzyl)oxy)-1H-indol-3-yl)oxetane-3-carboxamide]	200 to 1000
CC(=O)Nc1c[nH]c2ccc(CCOC(C)(C)C3CCN(CC(F)(F)F)C3)cc12 (stereo not drawn) [Compound 499, N-(5-(2-((2-(1-(2,2,2-trifluoroethyl)pyrrolidin-3-yl)propan-2-yl)oxy)ethyl)-1H-indol-3-yl)acetamide]	5000 to 100000
